17 compounds from US11718628B2, “SREBP inhibitors comprising a 6-membered central ring” (Capulus Therapeutics, LLC, priority 2018, dated 2023) can be followed below.

Values after ≈ are worked out from the molar mass of the structure shown.

The nature of data set [1]: Kinetic solubility. Format: physicochemical. As to conditions: pH 7.4 buffer, room temperature, 1.0% DMSO; for solubility kinetic at 24 h: aqueous buffer, kinetic from dmso stock, read-out: I: kinetic solubility class. As for the experimental part:
Kinetic Solubility Procedure: A 10 mM stock solution of a compound was prepared in DMSO, then 4 μL of the stock was added to a deep well plate containing 396 μL of pH 7.4 buffer. The sample plate was vortexed at 800 rpm for 24 h on thermomixer at room temperature. The plate was sealed well during the incubation process. The DMSO content in the sample was 1.0%. The concentration of the evaluated compound in the final incubation was 100 μM. At the end of the incubation period, the sample plate was centrifuged at 4000 rpm for 10 min and analyzed in LC-UV against a calibration curve (CC). Values <10 μg/mL=Low; 10 to 60 μg/mL=Medium; >60 μg/mL=High.

Data set [2] is described as follows: Half-life in human liver microsomes. The data set is classed as in vitro ADME. Particulars: NADPH, 37° C.; for half-life at 1 µM: human, liver microsomes, read-out: G: half-life human liver microsomes. On the procedure:
(§1) Half-life Human Microsomes: Compounds were evaluated for stability in human liver microsomes. A 10 mM stock solution of the compound being evaluated was prepared in DMSO and diluted with water:acetonitrile (1:1) to a concentration of 1 mM. A working concentration of 100 μM was prepared by further dilution with water:acetonitrile (1:1). To make the preincubation mixture, 2.5 μL of the diluted compound was combined with 75 μL of human liver microsomes at 3.33 mg/mL, and 85 μL of 100 mM potassium phosphate buffer, and this mixture was pre-incubated for 10 min at 37° C. To make the 60 minute mixture without cofactor, 32.5 μL of the preincubation mixture was combined with 17.5 μL of 100 mM potassium phosphate buffer and incubated for 60 min at 37° C. To make the 0 min sample with cofactor (NADPH), 16.25 μL of the preincubation mixture was combined with 200 μL of acetonitrile containing internal standard and 8.75 μL of cofactor (NADPH). To make the incubation mixture, 62 μL of cofactor (2.85 mM) was combined with the remaining incubation mixture, and incubated for 60 min at 37° C. To prepare the sample mixture to be evaluated, 25 μL incubation mixture was combined with 200 μL of acetonitrile containing internal standard and vortexed for 5 min at 1200 rpm, then centrifuged for 10 min at 4000 rpm. The supernatant was diluted 2 fold with water and injected on LC-MS/MS. The sample mixture was evaluated by LC-MS/MS using 10 mM ammonium acetate with 0.1% FA as the aqueous mobile phase, and methanol as the organic mobile phase.
(In general: Liver microsomes are vesicles of endoplasmic reticulum, rich in cytochrome P450 enzymes.)

A short description of data set [3]: Half-life in mouse liver microsomes. Particulars: for half-life at 1 µM: mouse, liver microsomes, read-out: H: half-life of mouse liver microsomes. Format: in vitro ADME. As for the experimental part:
as §1
Half-life Mouse Microsomes: Compounds were evaluated in mouse liver microsomes following a similar procedure as described above for human liver microsomes. A similar procedure could be used to evaluate compounds in rat liver microsomes.

Data set [4] can be described thus: In vivo pharmacokinetic properties in mice (IV and PO). On the set-up: species or system C57BL/6J mice. Particulars: mice. As for the experimental part:
(§2) The in vivo pharmacokinetic properties of compounds by both intravenous and oral administration were evaluated in male Sprague Dawley rats or C57BL/6J mice.
(§3) Animals were housed in cages with clean bedding. Certified rodent diet was provided. Water was available ad libitum. Environmental controls for the animal room were set to maintain a temperature of 22° C. to 25° C., humidity of 40-70% RH, and a 12-hour light/12-hour dark cycle. Normal healthy animals certified by the attending veterinarian were selected and acclimatized for minimum three days prior to initiation of study.
(§4) To evaluate pharmacokinetic properties of intravenous delivery, male Sprague Dawley rats were administered 2.00 mg compound/kg animal weight through the tail vein. The concentration of the compound in the plasma of the animals was evaluated at 0.083, 0.25, 0.5, 1, 2, 4, 8, 12 and 24 hr by taking blood samples from the cannulated jugular vein. For the C5Bl/6J mice, blood samples were collected through a capillary, guided in retro-orbital plexus.
[…] The concentration of compound in the plasma of the animals was evaluated at 0.25, 0.5, 1, 2, 4, 6, 8, 12 and 24 hr by taking blood samples from the cannulated jugular vein (rats) or through a capillary, guided in retro-orbital plexus (mice).

The nature of data set [5]: In vivo pharmacokinetic properties in rats (IV and PO). On the set-up: species or system male Sprague Dawley rats. As for the experimental part:
as §2, §3
Surgical Procedure for Jugular Vein Cannulation of Rats: Rats were anaesthetized with a single dose of ketamine 50 mg/kg i.p.+xylazine 6 mg/kg i.p. The right jugular vein was exposed, a loose ligature was placed caudally, and the cranial end of vein was ligated. A small incision was made between the ligatures into which the catheter (polyethylene 50 tubing of internal diameter 0.58 mm and outer diameter 0.96 mm) was inserted. The catheter was secured in place by tying the loose ligature around the catheterized vessel. A small incision was made in the scapular region to serve as the exit site of the catheter. The catheter was subcutaneously tunneled and exteriorized through scapular incision. A stay suture was placed in the scapular area. Patency was tested, and catheter was filled with a locking solution (heparinized saline) and sealed with a stainless steel plug. The incision was then sutured with sterile suturing material. Anti-septic solution was applied to the sutured site and animal was placed back in the home cage.
as §4
To evaluate pharmacokinetic properties of oral delivery, rats (male Sprague Dawley rats) or mice (C5Bl/6J) were administered 10 mg compound/kg animal weight by mouth. The concentration of compound in the plasma of the animals was evaluated at 0.25, 0.5, 1, 2, 4, 6, 8, 12 and 24 hr by taking blood samples from the cannulated jugular vein (rats) or through a capillary, guided in retro-orbital plexus (mice).

One may read the kinetic solubility as the concentration staying in solution when a stock, usually in DMSO, is diluted into the medium. One may read the half-life as the time in which the quantity being followed falls by half.

In the case of `O=C(c1ccc(-c2cncc(-c3ccnc4c3CCC4)c2)c(Cl)c1)N1CCC(O)CC1`, in data set [1], the kinetic solubility at 24 h fell in the range of 10 to 60 µg/mL (≈ 23 to 138 µM). In addition, the half-life at 1 µM came to 9.79 min in data set [2] and 0.457 h in data set [3].
For `CC(C)(C)c1cc(-c2cncc(-c3ccc(NC(=O)OC4CCC(O)CC4)cc3Cl)c2)ccn1` (stereo not drawn), in that order: < 10 µg/mL, 31.3 min and 2 h.
On the same counts, the results for `CC(C)(C)c1cc(-c2cncc(-c3ccc(C(=O)N4CCC(O)CC4)cc3)c2F)ccn1` [drawing 321] are 10 to 60 µg/mL (≈ 23.1 to 138 µM), 126 min and 1.38 h.
For `Cc1cc(C(=O)N2CCC(O)CC2)ccc1-c1cncc(-c2ccnc(C(C)(C)C)c2)c1` [drawing 337], in that order: 10 to 60 µg/mL (≈ 23.3 to 140 µM), 13.9 min and 3.55 h.
`CC(C)(C)c1cc(-c2cncc(-c3ccc(NS(C)(=O)=O)cc3Cl)c2)ccn1` [drawing 346]: the kinetic solubility at 24 h in data set [1] is < 10 µg/mL. In addition, the half-life at 1 µM in data set [2] came out at 19.8 min; in data set [3], 0.993 h.
For `CC(C)(O)c1cc(-c2cncc(-c3ccc(C(=O)N4CCC(O)CC4)cc3Cl)c2)ccn1` [drawing 356], in data set [1], the solubility (kinetic) at 24 h lay within 10 to 60 µg/mL (≈ 22.1 to 133 µM). Further, the half-life at 1 µM came out at 541 min in data set [2] and 48.7 h in data set [3].
On the same counts, the results for `CC1(O)CCCN(C(=O)c2ccc(-c3cncc(-c4ccnc(C(C)(C)C)c4)c3)c(Cl)c2)C1` (stereo not drawn) [drawing 366] are 10 to 60 µg/mL (≈ 21.6 to 129 µM), 5.81 min and 0.19 h.
For `CC1(O)CCN(C(=O)c2ccc(-c3cncc(-c4ccnc(C(C)(C)C)c4)c3)c(Cl)c2)CC1` [drawing 369], in that order: 10 to 60 µg/mL (≈ 21.6 to 129 µM), 13 min and 0.505 h.
With `CC(C)OC(=O)Nc1ccc(-c2cncc(-c3ccnc(C4OCCO4)c3)c2)c(Cl)c1` [drawing 371], the solubility (kinetic) at 24 h in data set [1] was < 10 µg/mL. Also, the figures for the half-life at 1 µM in data set [2] and in data set [3] were 13.5 min and 0.32 h, respectively.
On the same counts, the results for `CC(C)OC(=O)Nc1ccc(-c2cncc(-c3ccnc(C(C)(C)C)c3)c2)c(Cl)c1` [drawing 372] are < 10 µg/mL, 69.9 min and 3.7 h.
For `COC1CCCN(C(=O)c2ccc(-c3cncc(-c4ccnc(C(C)(C)C)c4)c3)c(Cl)c2)C1` (stereo not drawn) [drawing 375], in that order: 10 to 60 µg/mL (≈ 21.6 to 129 µM), 2.02 min and 0.15 h.
Take `CC(C)(C)c1cc(-c2cc(-c3ccc(C(=O)N4CCC(O)CC4)cc3Cl)ncn2)ccn1` [drawing 376]: the kinetic solubility at 24 h in data set [1] was 10 to 60 µg/mL (≈ 22.2 to 133 µM). Further, the half-life at 1 µM in data set [2] stood at 20.3 min; in data set [3], 1.14 h.
On the same counts, the results for `CC(C)(C)c1cc(-c2cccc(-c3ccc(C(=O)N4CCC(O)CC4)cc3Cl)c2)ccn1` [drawing 377] are < 10 µg/mL, 46.5 min and 1.5 h.
As to `CC(C)(C)c1cc(-c2cncc(-c3ccc(C(=O)N4CCC(O)CC4)cc3Cl)c2)ccn1` [drawing 378], the kinetic solubility at 24 h in data set [1] lay within 10 to 60 µg/mL (≈ 22.2 to 133 µM). The half-life at 1 µM in data set [2] was determined as 61.2 min; in data set [3], 1.33 h.
For `CC(C)(C)c1cc(-c2cncc(-c3ccc(C(=O)N4CCC(O)C(O)C4)cc3Cl)c2)ccn1` (stereo not drawn) [drawing 419], in that order: 10 to 60 µg/mL (≈ 21.5 to 129 µM), 21.8 min and 1.11 h.
Take `CC(C)(C)c1cc(-c2cncc(-c3ccc(C(=O)N4CCC(O)C(O)C4)cc3Cl)c2)ccn1` (stereo not drawn) [drawing 423]: in data set [1] (24 h), the “I: kinetic solubility class” value is “MEDIUM (10 to 60 μg/mL=Medium)”. Also, the “G: half-life human liver microsomes” value in data set [2] turned out to be 21.4 min. For the same compound, the “H: half-life of mouse liver microsomes” value in data set [3] was determined as 56.5 min.
With “N-(4-(2′-(tert-butyl)-[3,4′-bipyridin]-5-yl)-3-chlorophenyl)-isopropylsulfamoyl urea [Compound Z-812]”, in data set [4] (IV, 2 mg/kg), the Intravenous Delivery (IV) AUC0-last turned out to be 1150 ng·h/mL, the “Intravenous Delivery (IV) CL” value stood at 28.6 mL/min/kg, the “Intravenous Delivery (IV) T1/2” value was 67.2 min and the “Intravenous Delivery (IV) Vd” value worked out at 2.78 L/kg. Also, the “% F (Bioavailability of oral delivery)” value in data set [4] (PO 10 mg/kg vs IV 2 mg/kg) is on record as 52%. Besides, in data set [4] (PO, 10 mg/kg), the Oral Administration (PO) AUC0-last turned out to be 3000 ng·h/mL, the “Oral Administration (PO) T1/2” value was found to be 253 min and the “Oral Administration (PO) Tmax” value was 15 min. In addition, in data set [5] (IV, 2 mg/kg), the “Intravenous Delivery (IV) CL” value was 53.5 mL/min/kg, the “Intravenous Delivery (IV) T1/2” value came to 112 min and the “Intravenous Delivery (IV) Vd” value was found to be 8.65 L/kg. Besides, in data set [5] (PO 10 mg/kg vs IV 2 mg/kg), the “% F (Bioavailability of oral delivery)” value was 0.65%. In data set [5] (PO, 10 mg/kg), the Oral Administration (PO) AUC0-last worked out at 18 ng·h/mL, the “Oral Administration (PO) T1/2” value came to 81 min and the “Oral Administration (PO) Tmax” value is 19.8 min.
